Assay results published in patent US20100179093A1, “Neoropeptide-2-Receptor (Y-2R) Agonists” (priority 2008, published 2010).
Like-named read-outs stand apart in the source and are kept apart here.

Columns and labels:
Type in all cases: cell-based
Y1R = biological target: T1, Y1R (Homo sapiens, UniProt P25929); assay: CaFlux Assay (FLIPR), Y1R
T1 sequence (P25929 1-384): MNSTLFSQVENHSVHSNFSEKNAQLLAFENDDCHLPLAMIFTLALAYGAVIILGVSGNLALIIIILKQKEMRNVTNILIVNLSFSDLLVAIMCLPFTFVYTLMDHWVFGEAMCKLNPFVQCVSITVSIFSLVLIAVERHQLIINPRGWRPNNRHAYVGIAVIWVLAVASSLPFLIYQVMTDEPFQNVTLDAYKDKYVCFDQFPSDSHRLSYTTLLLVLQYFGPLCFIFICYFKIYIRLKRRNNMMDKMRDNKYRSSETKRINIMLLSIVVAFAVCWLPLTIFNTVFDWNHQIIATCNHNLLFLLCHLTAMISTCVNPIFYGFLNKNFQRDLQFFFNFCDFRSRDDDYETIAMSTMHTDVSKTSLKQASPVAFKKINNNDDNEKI

Y4R = Y4R (Homo sapiens, UniProt P50391); assay: CaFlux Assay (FLIPR), Y4R
Y5R = biological target: T2, Y5R (Homo sapiens, UniProt Q15761); assay: CaFlux Assay (FLIPR), Y5R; conditions: for Emax: read-out: Y5R FLIPR, percentage in parentheses under the EC50;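 for Emax: percent of the maximal response of the positive control agonist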
T2 sequence (Q15761 1-445): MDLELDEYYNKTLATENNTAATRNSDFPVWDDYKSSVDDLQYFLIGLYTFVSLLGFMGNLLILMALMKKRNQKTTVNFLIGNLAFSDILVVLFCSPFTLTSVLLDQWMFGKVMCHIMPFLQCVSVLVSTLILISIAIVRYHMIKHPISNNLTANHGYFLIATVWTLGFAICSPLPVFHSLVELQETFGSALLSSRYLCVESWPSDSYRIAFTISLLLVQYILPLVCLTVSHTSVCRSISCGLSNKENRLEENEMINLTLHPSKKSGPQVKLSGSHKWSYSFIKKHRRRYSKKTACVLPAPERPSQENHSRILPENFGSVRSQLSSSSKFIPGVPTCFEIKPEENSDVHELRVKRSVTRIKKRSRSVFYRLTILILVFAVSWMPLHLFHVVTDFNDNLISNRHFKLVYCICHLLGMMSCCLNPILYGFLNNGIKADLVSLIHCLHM

hNPY2R [1] = biological target: T3, hNPY2R (Homo sapiens, UniProt P49146); assay: cAMP Agonist Assay, HEK293/hNPY2R cells; parameters: expressed in transfected cells; host or cells: HEK293/hNPY2R (G418 selection)
T3 sequence (P49146 1-381): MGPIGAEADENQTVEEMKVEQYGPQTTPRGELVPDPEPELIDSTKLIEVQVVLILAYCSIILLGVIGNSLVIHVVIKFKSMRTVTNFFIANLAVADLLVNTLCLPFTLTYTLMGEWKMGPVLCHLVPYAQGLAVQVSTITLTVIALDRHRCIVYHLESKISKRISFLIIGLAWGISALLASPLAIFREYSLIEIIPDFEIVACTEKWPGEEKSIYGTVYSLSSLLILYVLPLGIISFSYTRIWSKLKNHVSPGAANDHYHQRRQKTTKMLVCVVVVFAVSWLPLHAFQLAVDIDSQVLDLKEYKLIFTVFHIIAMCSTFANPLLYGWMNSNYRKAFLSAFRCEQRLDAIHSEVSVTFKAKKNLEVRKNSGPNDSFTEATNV
Procedure: On the first day, medium was discarded, and the monolayer cells were washed with 10 mL PBS per flask (T225). […] The flask was gently tapped and the cell suspension was pooled. Each flask was rinsed with 10 mL plating medium and centrifuged at 1000 rpm for 5 min. The suspension was pooled and counted. The suspension was resuspended in plating medium at a density of 2.0×10^5 cells/mL for HEK293/hNPY2R. 50 microliters of cells (HEK293/hNPY2R-10,000 cells/well) were transferred into the 384-well plate using Multi-drop dispenser. The plates were incubated at 37° C. overnight. […] The media and reagents were allowed to come to room temperature. Before the dilutions were prepared, the stock solution of stimulating compound in dimethyl sulphoxide (DMSO, Sigma, cat #D2650) was allowed to warm up to 32 C for 5-10 min. […] The cell medium was tapped off with a gentle inversion of the cell plate on a paper towel. 50 μL of stimulation medium was placed per well (each concentration done in four replicates). The plates were incubated at room temperature for 30 min, and the cells were checked under a microscope for toxicity. After 30 minutes of treatment, the stimulation media was discarded and 50 mL/well of Assay Lysis Buffer (provided in the Tropix kit) was added. The plates were incubated for 45 min@37° C. 20 μL of the lysate was transferred from stimulation plates into the pre-coated antibody plates (384-well) from the Tropix kit. 10 μL of AP conjugate and 20 μL of anti-cAMP antibody was added. The plates were incubated at room temperature while shaking for 1 hour. The plates were then washed 5 times with Wash Buffer, 70 μL per well for each wash. The plates were tapped to dry. 30 μL/well of CSPD/Saphire-II RTU substrate/enhancer solution was added and incubated for 45 min @ RT (shake). Signal for 1 sec/well in a Luminometer.

hNPY2R [2] = biological target: T3, hNPY2R; assay: CaFlux Assay (FLIPR), Y2R; parameters: expressed in transfected cells; host or cells: HEK-293 stably expressing G protein chimera Gaqi9
Procedure: Hek-293 cells were stably transfected with the G protein chimera Gaqi9 and the hygromycin-B resistance gene were further transfected with the human NPY2 receptor and G418 antibiotic selection. Following selection in both hygromycin-B and G418, individual clones were assayed for their response to PYY. The transfected cells were cultured in DMEM medium supplemented with 10% fetal bovine serum, 50 μg/mL hygromycin-B 2 mM glutamine, 100 U/mL penicillin, 100 μg/mL streptomycin and 250 μg/mL G418. Cells are harvested with trypsin-EDTA and counted using ViaCount reagent. The cell suspension volume is adjusted to 4.8×10^5 cells/mL with complete growth media. Aliquots of 25 μL are dispensed into 384 well Poly-D Lysine coated black/clear microplates (Falcon) and the microplates were placed in a 37° C. CO2 incubator overnight. Loading Buffer (Calcium-3 Assay Kit, Molecular Devices) was prepared by dissolving the contents of one vial (Express Kit) into 1000 mL Hank's Balanced Salt Solution containing 20 mM HEPES and 5 mM probenecid. Aliquots of 25 μL of diluted dye were dispensed into the cell plates and the plates are then incubated for 1 hour at 37° C. During the incubation, test compounds were prepared at 3.5× the desired concentration in HBSS (20 mM HEPES)/0.05% BSA/1% DMSO and transferred to a 384 well plate for use on FLIPR. After incubation, both the cell and compound plates were brought to the FLIPR and 20 μL of the diluted compounds were transferred to the cell plates by the FLIPR. During the assay, fluorescence readings were taken simultaneously from all 384 wells of the cell plate every 1.5 seconds. Five readings were taken to establish a stable baseline, and then 20 μL of sample was rapidly (30 μL/sec) and simultaneously added to each well of the cell plate. The fluorescence was continuously monitored before, during and after sample addition for a total elapsed time of 100 seconds. Responses (increase in peak fluorescence) in each well following addition were determined. The initial fluorescence reading from each well, prior to ligand stimulation, was used as a zero baseline value for the data from that well. The responses are expressed as % of maximal response of the positive control.

Sequence of Y4R (P50391 whole entry): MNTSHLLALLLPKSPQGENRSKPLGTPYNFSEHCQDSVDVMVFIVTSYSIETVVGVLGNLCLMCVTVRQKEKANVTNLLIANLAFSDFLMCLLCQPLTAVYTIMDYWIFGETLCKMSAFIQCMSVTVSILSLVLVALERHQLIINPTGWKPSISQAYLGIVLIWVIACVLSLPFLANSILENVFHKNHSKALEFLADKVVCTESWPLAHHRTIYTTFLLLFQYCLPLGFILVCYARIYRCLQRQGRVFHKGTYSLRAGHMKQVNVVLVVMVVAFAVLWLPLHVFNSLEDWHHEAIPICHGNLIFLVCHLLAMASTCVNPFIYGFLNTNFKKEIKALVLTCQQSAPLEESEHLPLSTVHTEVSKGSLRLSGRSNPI

SMILES | EC50 (Y1R) [nM] | EC50 (Y4R) [nM] | EC50 (Y5R) [nM] | EC50 (hNPY2R [1]) [nM] | EC50 (hNPY2R [2]) [nM] | EC50 (Y1R; FLIPR, read-out: Y1R EC50 (nM) FLIPR) [nM] | EC50 (Y4R; FLIPR, read-out: Y4R EC50 (nM) FLIPR) [nM] | EC50 (Y5R; FLIPR, read-out: Y5R EC50 (nM) FLIPR) [nM] | Emax (Y5R) [%] | EC50 (hNPY2R [1]; HEK293/hNPY2R, Forskolin 5 μM, read-out: Y2R EC50 (nM) cAMP) [nM] | EC50 (hNPY2R [2]; FLIPR calcium flux, Hek-293 cells with Gaqi9 and human NPY2 receptor, read-out: Y2R EC50 (nM) FLIRR) [nM]
CCCCCCCCCCCCCCCC(=O)NCCCCCC(=O)N[C@H](C(=O)N[C@@H](CCCCN)C(=O)N1CCN(c2ccc3ncn(CC(=O)N[C@@H](CCCNC(=N)N)C(=O)N[C@@H](Cc4c[nH]cn4)C(=O)N[C@@H](Cc4ccc(O)cc4)C(=O)N[C@@H](CC(C)C)C(=O)N[C@@H](CC(N)=O)C(=O)N[C@@H](Cc4c[nH]c5ccccc45)C(=O)N[C@H](C(=O)N[C@H](C(=O)N[C@@H](CCCNC(=N)N)C(=O)N[C@@H](CCC(N)=O)C(=O)N(C)[C@@H](CCCNC(=N)N)C(=O)N[C@@H](Cc4ccc(O)cc4)C(N)=O)[C@@H](C)O)C(C)C)c(=O)c3c2)CC1)[C@@H](C)CC [Example 16] | > 5000 | 13700 | 544 | 0.23 | 0.18 |  |  |  |  |  | 
CCCCCCCCCCCCCCCC(=O)NCCCCCC(=O)N[C@H](C(=O)N[C@@H](CCCCN)C(=O)N1CCN(c2ccc3ncn(CC(=O)N[C@@H](CCCNC(=N)N)C(=O)N[C@@H](Cc4c[nH]cn4)C(=O)N[C@@H](Cc4ccc(O)cc4)C(=O)N[C@@H](CC(C)C)C(=O)N[C@@H](CC(N)=O)C(=O)N[C@@H](Cc4c[nH]c5ccccc45)C(=O)N[C@H](C(=O)N[C@H](C(=O)N[C@@H](CCCNC(=N)N)C(=O)N[C@@H](CCC(N)=O)C(=O)N[C@@H](CCCNC(=N)N)C(=O)N[C@@H](Cc4ccc(O)cc4)C(N)=O)[C@@H](C)O)C(C)C)c(=O)c3c2)CC1)[C@@H](C)CC [Example 17] | > 5000 | 14500 | 27 | 0.25 | 0.09 |  |  |  |  |  | 
CCCCCCCCCCCCCCCC(=O)NCCCCCC(=O)NCCCC[C@H](NC(=O)[C@@H](N)[C@@H](C)CC)C(=O)N1CCN(c2ccc3ncn(CC(=O)N[C@@H](CCCNC(=N)N)C(=O)N[C@@H](Cc4c[nH]cn4)C(=O)N[C@@H](Cc4ccc(O)cc4)C(=O)N[C@@H](CC(C)C)C(=O)N[C@@H](CC(N)=O)C(=O)N[C@@H](Cc4c[nH]c5ccccc45)C(=O)N[C@H](C(=O)N[C@H](C(=O)N[C@@H](CCCNC(=N)N)C(=O)N[C@@H](CCC(N)=O)C(=O)N(C)[C@@H](CCCNC(=N)N)C(=O)N[C@@H](Cc4ccc(O)cc4)C(N)=O)[C@@H](C)O)C(C)C)c(=O)c3c2)CC1 [Example 18] | > 5000 | > 5000 | 1190 | 0.18 | 0.012 |  |  |  |  |  | 
CCCCCCCCCCCCCCCC(=O)NCCCCCC(=O)NCCCC[C@H](NC(=O)[C@@H](N)[C@@H](C)CC)C(=O)N1CCN(c2ccc3ncn(CC(=O)N[C@@H](CCCNC(=N)N)C(=O)N[C@@H](Cc4c[nH]cn4)C(=O)N[C@@H](Cc4ccc(O)cc4)C(=O)N[C@@H](CC(C)C)C(=O)N[C@@H](CC(N)=O)C(=O)N[C@@H](Cc4c[nH]c5ccccc45)C(=O)N[C@H](C(=O)N[C@H](C(=O)N[C@@H](CCCNC(=N)N)C(=O)N[C@@H](CCC(N)=O)C(=O)N[C@@H](CCCNC(=N)N)C(=O)N[C@@H](Cc4ccc(O)cc4)C(N)=O)[C@@H](C)O)C(C)C)c(=O)c3c2)CC1 [Example 19] | > 5000 | > 5000 | 45 | 0.15 | 0.004 |  |  |  |  |  | 
CCCCCCCCCCCCCCCC(=O)NCCC(=O)NCCCC[C@H](NC(=O)[C@@H](N)[C@@H](C)CC)C(=O)N1CCN(c2ccc3ncn(CC(=O)N[C@@H](CCCNC(=N)N)C(=O)N[C@@H](Cc4c[nH]cn4)C(=O)N[C@@H](Cc4ccc(O)cc4)C(=O)N[C@@H](CC(C)C)C(=O)N[C@@H](CC(N)=O)C(=O)N[C@@H](Cc4c[nH]c5ccccc45)C(=O)N[C@H](C(=O)N[C@H](C(=O)N[C@@H](CCCNC(=N)N)C(=O)N[C@@H](CCC(N)=O)C(=O)N(C)[C@@H](CCCNC(=N)N)C(=O)N[C@@H](Cc4ccc(O)cc4)C(N)=O)[C@@H](C)O)C(C)C)c(=O)c3c2)CC1 [Example 20] | > 5000 | > 5000 | 1880 | 0.26 | 0.015 |  |  |  |  |  | 
CCCCCCCCCCCCCCCC(=O)N[C@@H](CCC(=O)O)C(=O)NCCCC[C@H](NC(=O)[C@@H](N)[C@@H](C)CC)C(=O)N1CCN(c2ccc3ncn(CC(=O)N[C@@H](CCCNC(=N)N)C(=O)N[C@@H](Cc4c[nH]cn4)C(=O)N[C@@H](Cc4ccc(O)cc4)C(=O)N[C@@H](CC(C)C)C(=O)N[C@@H](CC(N)=O)C(=O)N[C@@H](Cc4c[nH]c5ccccc45)C(=O)N[C@H](C(=O)N[C@H](C(=O)N[C@@H](CCCNC(=N)N)C(=O)N[C@@H](CCC(N)=O)C(=O)N(C)[C@@H](CCCNC(=N)N)C(=O)N[C@@H](Cc4ccc(O)cc4)C(N)=O)[C@@H](C)O)C(C)C)c(=O)c3c2)CC1 [Example 21] | > 5000 | > 5000 | 4180 | 1 | 0.43 |  |  |  |  |  | 
CCCCCCCCCCCCCCCC(=O)N[C@@H](CCC(=O)O)C(=O)N[C@@H](CCC(=O)O)C(=O)NCCCC[C@H](NC(=O)[C@@H](N)[C@@H](C)CC)C(=O)N1CCN(c2ccc3ncn(CC(=O)N[C@@H](CCCNC(=N)N)C(=O)N[C@@H](Cc4c[nH]cn4)C(=O)N[C@@H](Cc4ccc(O)cc4)C(=O)N[C@@H](CC(C)C)C(=O)N[C@@H](CC(N)=O)C(=O)N[C@@H](Cc4c[nH]c5ccccc45)C(=O)N[C@H](C(=O)N[C@H](C(=O)N[C@@H](CCCNC(=N)N)C(=O)N[C@@H](CCC(N)=O)C(=O)N(C)[C@@H](CCCNC(=N)N)C(=O)N[C@@H](Cc4ccc(O)cc4)C(N)=O)[C@@H](C)O)C(C)C)c(=O)c3c2)CC1 [Example 23] |  |  |  |  |  | > 5000 | > 5000 | 459 | 70 | 0.29 | 0.033
CCCCCCCCCCCCCCCC(=O)N[C@@H](CCC(=O)NCCCC[C@H](NC(=O)[C@@H](N)[C@@H](C)CC)C(=O)N1CCN(c2ccc3ncn(CC(=O)N[C@@H](CCCNC(=N)N)C(=O)N[C@@H](Cc4c[nH]cn4)C(=O)N[C@@H](Cc4ccc(O)cc4)C(=O)N[C@@H](CC(C)C)C(=O)N[C@@H](CC(N)=O)C(=O)N[C@@H](Cc4c[nH]c5ccccc45)C(=O)N[C@H](C(=O)N[C@H](C(=O)N[C@@H](CCCNC(=N)N)C(=O)N[C@@H](CCC(N)=O)C(=O)N(C)[C@@H](CCCNC(=N)N)C(=O)N[C@@H](Cc4ccc(O)cc4)C(N)=O)[C@@H](C)O)C(C)C)c(=O)c3c2)CC1)C(=O)O [Example 24] | > 5000 | > 5000 | 168 | 0.21 | 0.039 |  |  |  | 70 |  | 
CCCCCCCCCCCCCCCC(=O)N[C@@H](CCC(=O)N[C@@H](CCC(=O)NCCCC[C@H](NC(=O)[C@@H](N)[C@@H](C)CC)C(=O)N1CCN(c2ccc3ncn(CC(=O)N[C@@H](CCCNC(=N)N)C(=O)N[C@@H](Cc4c[nH]cn4)C(=O)N[C@@H](Cc4ccc(O)cc4)C(=O)N[C@@H](CC(C)C)C(=O)N[C@@H](CC(N)=O)C(=O)N[C@@H](Cc4c[nH]c5ccccc45)C(=O)N[C@H](C(=O)N[C@H](C(=O)N[C@@H](CCCNC(=N)N)C(=O)N[C@@H](CCC(N)=O)C(=O)N(C)[C@@H](CCCNC(=N)N)C(=O)N[C@@H](Cc4ccc(O)cc4)C(N)=O)[C@@H](C)O)C(C)C)c(=O)c3c2)CC1)C(=O)O)C(=O)O [Example 25] | > 5000 | > 5000 | 443 | 0.22 | 0.08 |  |  |  | 70 |  | 
